From patent US20230053473A1, “ENHANCING EXPRESSION OF LINE-1 ENCODED ORF2P FOR CANCER THERAPEUTICS” (The Johns Hopkins University, priority 2019, published 2023)

Assays:
PKR = PKR (Homo sapiens, UniProt P19525); details: in vitro, cited from earlier work
FANCD2 = experiment: Western blot of FANCD2 monoubiquitination; format: cell-based; details: NTC-treated cells; 24-hour treatment with 1 μg/ml
Description: FIGS. 5A-5H. The Fanconi Anemia (FA) pathway is essential in p53-deficient cells. 5A) Network plot of 75 DNA repair genes identified in the screen. Edges indicate known physical interactions. This network is enriched for Fanconi anemia genes (blue nodes). 5B) Model of FA complexes responding to a DNA lesion (vertical line) encountered by a replication fork (blue line=genomic DNA; green line=nascent DNA). Genes are color coded based on the performance of their knockouts in the screen. 5C) Western blot of FANCD2 response to 24-hour treatment with 1 μg/ml mitomycin C (MMC). Cells are treated with FA member sgRNAs or non-targeting-control (NTC). FANCD2 monoubiquitination is assessed as the ratio of FANCD2-L (long) to FANCD2-S (short) band intensities (relative L:S ratio). The ratio is graphed relative to NTC, MMC-treated cells. nd=not determined. Uncropped blot is shown in the Source Data. 5D) Clonogenic growth assay of LINE-1(+) RPE cells with sgRNAs targeting the same genes as in (C). n=3 independent experiments. P value calculated with a one-sided T test. […] Quantification to the right of n=2 independent experiments ±SEM. […] Quantification below of n=2 independent experiments ±SEM. Effect of wildtype LINE-1 is statistically significant as assessed by ANOVA (p=0.0143). […] Right, quantification of FANCD2 foci in EdU+HeLa cells. […] 5H) Left, γH2A.X and 53BP1 focus quantification in EdU+TP53^KD cells. […]

RPA2 = experiment: Western blot of chromatin-bound RPA2; format: cell-based; details: RPE, chromatin-bound protein fractions; 1 μM
Method: FIGS. 6A-6G. LINE-1 activity induces replication stress. 6A) Median count of sgRNAs targeting replication stress signaling genes ATRIP and the 9-1-1 complex (HUS1 and RAD1) during the screen. Error bars indicate 95% confidence intervals. 6B) Clonogenic assay of LINE-1(+) RPE cells (induced with 1 μg/ml doxycycline) with CRISPR-knockout of ATRIP compared to non-targeting-control (NTC). Error bars indicate SEM, n=3 independent experiments. P value is calculated with an unpaired two-sided T test. 6C) Clonogenic assay of LINE-1(+) RPE cells (induced with 1 μg/ml doxycycline) with drug inhibition of ATR kinase by 1 μM VE-821 compared to vehicle (DMSO). Error bars indicate SEM, n=3 independent experiments. P value is calculated with an unpaired two-sided T test. 6D) Western blot of RPA2 occupancy on chromatin induced by LINE-1 compared to luciferase control after 72 hours of expression in RPE. Chromatin-bound protein lysates were used. […] Relative signal intensity for n=2 independent experiments ±SEM is quantified. […] Statistical significance is assessed by ANOVA (p=0.0007). […]
Cells were lysed in RIPA buffer with protease/phosphatase inhibitor (cat#5872, Cell Signaling Technology, Danvers, Mass.) or Laemmli Sample Buffer (cat#1610747, Biorad, Hercules, Calif.) by sonication. […] Quantifications were carried out using Image Studio v4.0. […]

LINE-1(+) RPE cells = experiment: Clonogenic growth assay, LINE-1(+) cells; format: cell-based
Method: (§1) Viability was determined by clonogenic growth or CellTiter-Glo assay (Promega, Madison, Wis.). WT RPE were assessed by clonogenic growth by transfecting 1e5 cells with 2 μg eGFP (pDA083) or 3 μg LINE-1 (pDA077) plasmid to achieve equimolar ratios. Cells were split to 10 cm growth dishes and selected with G418 24 hours later. In Tet-On assays, 500 cells were plated and doxycycline was added to activate transgene expression. For MMC sensitivity experiments, cells were treated with 100 pM, 1 nM, 10 nM, and 100 nM for 24 hours on day 2 after plating. In VE-821 sensitivity, cells were treated with 1 μM drug or DMSO vehicle throughout the duration of the experiment. For assays in CRISPR knockout cells, knockout cell pools were generated by infecting TP53^KD Tet-On RPE cells with lentivirus encoding either non-targeting control or a gene targeting guide and selecting with puromycin for 1 week. For all assays, after 10-14 days of L1 or control expression, colonies were washed with PBS and fixed (6% gluteraldehyde, 0.5% crystal violet) for 10 minutes. Plates were rinsed in water and air dried, then imaged on a flatbed scanner. Colonies with >50 cells were counted.

RPE cells = format: cell-based
Description: (§2) FIGS. 13A and 13B. […] (Day 1 and 3 show little effect. The effect is sustained at day 10. Higher doses of the drug are toxic). The cells used are RPE cells that have a doxycycline (Dox) controlled LINE-1 expression construct. (13A.) Western blot showing ORF2p, ORF1p, and tubulin levels on day 5. Addition of Dox induces LINE-1 expression. Addition of PKRi enhances relative ORF2p expression levels. (13B.) Quantification of ORF2p expression (relative to tubulin) by Western blot as a function PKRi inhibitor dose on different days of the experiment.
(§3) (Day 1 and 3 show little effect. The effect is sustained at day 10. Higher doses of the drug are toxic.) The finding is significant as proof-of-principle that specific cellular pathways are involved in uncoupling the expression of LINE-1 encoded proteins. As such increasing ORF2p intracellularly in tumors can cause tumor cell death.

ORF2p = experiment: Western blot of ORF2p accumulation in RPE cells with doxycycline-controlled LINE-1 expression construct; format: cell-based, human
Description: as §2
Cells were lysed in RIPA buffer with protease/phosphatase inhibitor (cat#5872, Cell Signaling Technology, Danvers, Mass.) or Laemmli Sample Buffer (cat#1610747, Biorad, Hercules, Calif.) by sonication. PAGE was carried out with manufacturer-recommended buffers on 4-20% or 7.5% Mini TGX Gels (Biorad), NuPAGE 4-12% BisTris gels, or NuPAGE 3-8% Tris-Acetate gels (Thermo). Semi-dry transfers were carried out for Biorad gels or NuPAGE BisTris gels at 2.5 A for 5-15 minutes using the Trans-Blot-Turbo (Biorad). Wet transfers were carried out for Tris-Acetate gels at 30V overnight. All blocking was performed with Odyssey Blocking Buffer (Licor). Primary antibodies were incubated with membranes overnight at 4C, then infrared-conjugated secondaries (Licor) were added 1:10,000 and imaged on a Licor Odyssey Scanner. Quantifications were carried out using Image Studio v4.0. Blots were stripped with Reblot Plus Strong Solution (Millipore Sigma).
as §3

luciferase(+) cells = experiment: Clonogenic growth assay, luciferase(+) control cells; format: cell-based
Method: as §1

[1] = tested on: Tet-On TP53KD cells expressing LINE-1; experiment: qRT-PCR of LINE-1-induced IFN response with nucleoside reverse transcriptase inhibitors; format: cell-based; details: 5 μM for 72 hours
Method: 250,000 Tet-On TP53^KD cells expressing Luciferase or LINE-1 were plated in T25 flasks with 1 ng/mL doxycycline added and treated with 5 μM zalcitabine (ddC) or 5 μM didanosine (ddI) for 72 hours. Cells were lysed and RNA were extracted using Quick-RNA MicroPrep kit (Zymo Research).
cDNA was generated using the iScript kit (Biorad, Hercules, Calif.) following RNA extraction using the Quick-RNA Microprep kit (Zymo). Primers were designed using Primer3 and tested against cDNA to ensure single bands were generated in the PCR. Real-time PCR was performed for 40 cycles (98C×15 seconds, 60C×30 seconds) using SSOAdvanced 2X Master mix (Biorad) on the MyIQ cycler (Biorad). Fold-change expression was determined by the 2^−ΔΔCt method.

TP53KD cells = experiment: γH2A.X and 53BP1 nuclear foci quantification in TP53KD cells; format: cell-based; details: data not shown
Method: (§4) We used either Tet-On TP53^KD cells expressing Luciferase or LINE-1 or HeLa cells transfected with doxycycline-inducible LINE-1 plasmids (pDA007, pDA025, pDA027, pDA033, pDA019) and stably-selected with puromycin for 1-2 weeks. Positive controls were treated with either 6 mM hydroxyurea for 4 hours or 200 ng/mL doxorubicin for 2 hours. 100,000 cells were plated on cover slips and treated with 1000 ng/ml doxycycline for 72 hours. EdU was added for 2 hours and cells were pre-treated with 0.5% Triton X-100 for 5 min, fixed with 3.7% paraformaldehyde for 10 minutes, then permeabilized with 0.5% NP-40 for 10 minutes. EdU Click-iT reaction (ThermoFisher) was performed following manufacturer's instructions. Slides were blocked (1% BSA/PBS-Glycine, 30 minutes) and incubated with polyclonal rabbit FANCD2 (1:1000, Novus Biologicals), rabbit 53BP1 (1:500, Novus Biologicals), or mouse γH2A.X (1:1000, Millipore) for 1 hour at room temperature and then anti-rabbit Alexa Fluor 488 for FANCD2 (1:200, ThermoFisher) and anti-rabbit Alexa Fluor 488 (1:2000, ThermoFisher) and anti-mouse Alexa Fluor 555 (1:2000, ThermoFisher) for 53BP1 and γH2A.X, respectively. Slides were imaged at low magnification with the same equipment as described above with key methodological differences. […] Foci were quantified using a previously published method in MATLAB. […]

HeLa cells = experiment: FANCD2 nuclear foci quantification in EdU-labeled HeLa cells; format: cell-based; details: S phase (EdU+) cells; p=1.7×10^−8
Method: as §4

Chain of PKR (P19525 whole entry): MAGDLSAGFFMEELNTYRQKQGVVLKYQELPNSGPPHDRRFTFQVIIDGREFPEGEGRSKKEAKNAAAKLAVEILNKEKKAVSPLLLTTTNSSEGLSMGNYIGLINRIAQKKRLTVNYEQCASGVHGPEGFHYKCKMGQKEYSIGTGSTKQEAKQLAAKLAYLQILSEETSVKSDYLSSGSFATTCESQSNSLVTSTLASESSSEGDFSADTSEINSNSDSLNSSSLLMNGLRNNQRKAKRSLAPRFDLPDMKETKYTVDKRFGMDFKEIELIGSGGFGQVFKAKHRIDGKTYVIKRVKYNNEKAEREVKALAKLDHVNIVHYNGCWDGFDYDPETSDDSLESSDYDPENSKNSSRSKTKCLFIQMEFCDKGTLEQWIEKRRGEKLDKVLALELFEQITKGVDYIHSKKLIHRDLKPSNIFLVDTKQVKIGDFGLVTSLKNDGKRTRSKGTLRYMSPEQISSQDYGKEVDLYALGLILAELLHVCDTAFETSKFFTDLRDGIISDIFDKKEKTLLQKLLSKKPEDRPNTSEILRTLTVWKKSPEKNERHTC

Nc1ncc2[nH]cnc2n1 [2-AP, 2-aminopurine]
potency relative to C16 (PKR; competes for ATP at the ATP binding site of PKR): less potent than C16

CO[C@@]12[C@H](COC(N)=O)C3=C(C(=O)C(C)=C(N)C3=O)N1C[C@@H]1N[C@@H]12 [MMC, mitomycin C]
FANCD2 monoubiquitination (FANCD2-Ub) (FANCD2): induced FANCD2-Ub | chromatin-bound RPA2 (RPA2): induced chromatin-bound RPA2 | sensitivity of LINE-1(+) cells compared to luciferase-expressing controls (LINE-1(+) RPE cells; dose-response clonogenic assay, 24 hours treatment): 1.9 fold

O=C1Nc2ccc3ncsc3c2C1=Cc1cnc[nH]1 [PKRi, 6,8-dihydro-8-(1H-imidazol-5-ylmethylene)-7H-pyrrolo[2,3-g]benzothiazol-7-one]
IC50 (PKR): ~200 nM | toxicity (RPE cells): toxic | accumulation of ORF2p (relative to ORF1p and tubulin) (ORF2p; 0.1 uM, by day 6 of treatment): increases the accumulation of ORF2p | effect on ORF2p accumulation (ORF2p; Day 1 and 3): little effect | accumulation of ORF2p (relative to ORF1p and tubulin) (ORF2p; by day 5 of treatment, Dox-induced RPE cells): dose-dependent increases the accumulation of ORF2p | effect on ORF2p accumulation (ORF2p; day 10): sustained

CS(=O)(=O)c1ccc(-c2cnc(N)c(C(=O)Nc3ccccc3)n2)cc1 [VE-821]
effect on viability in luciferase(+) cells (luciferase(+) cells; same dose as in LINE-1(+) cells, data not shown): no effect on viability | sensitization of cells to LINE-1 (ATR inhibition) (LINE-1(+) RPE cells; 1 μM vs DMSO vehicle): sensitized cells to LINE-1

O=c1[nH]cnc2c1ncn2[C@H]1CC[C@@H](CO)O1 [didanosine]
effect on LINE-1-induced IFN response [1]: attenuated the IFN response

COc1cccc2c1C(=O)c1c(O)c3c(c(O)c1C2=O)C[C@@](O)(C(=O)CO)C[C@@H]3O[C@H]1C[C@H](N)[C@H](O)[C@H](C)O1 [doxorubicin]
DNA damage foci (γH2A.X and 53BP1) over the cell cycle (TP53KD cells): continue to accumulate

NC(=O)NO [hydroxyurea]
number of FANCD2 foci (HeLa cells): increased the number of FANCD2 foci

Nc1ccn([C@H]2CC[C@@H](CO)O2)c(=O)n1 [zalcitabine]
effect on LINE-1-induced IFN response [1]: attenuated the IFN response

pladienolide B [PLA-B]
reduction of luciferase(+) clonogenic growth (luciferase(+) cells; same PLA-B dose as for LINE-1(+) cells): 6.8% | increased sensitivity of LINE-1(+) vs luciferase(+) cells (LINE-1(+) RPE cells; P=0.044): 4.1 fold | fewer colonies of LINE-1(+) cells (LINE-1(+) RPE cells; same PLA-B dose as for luciferase(+) cells): 27.8%
